ChEMBL document CHEMBL1201862, “PubChem BioAssay data set” (2004)
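Exposure lasted 48 hours, with cells grown in 96-well plates and compounds tested at five concentrations. The concentration for 50% growth inhibition is given as GI50.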 Calls of active or inactive are those of the source. Rule as the data show it: active = GI50 up to about 1.1 µM and inactive = higher.

Assays:
Experiment in all cases: NCI-60 cell line screen, 48 h
CAKI-1 = system: CAKI-1
LXFL 529 = system: LXFL 529
SR = system: SR
XF498 = system: XF498
HL-60 = system: HL-60
UO-31 = system: UO-31
NCI-H460 = system: NCI-H460
M19-MEL = system: M19-MEL
SF-295 = system: SF-295
SN12C = system: SN12C
SW-620 = system: SW-620
U-251 = system: U-251
SNB-75 = system: SNB-75
HT-29 = system: HT-29
SK-MEL-2 = system: SK-MEL-2
A498 = system: A498
SNB-19 = system: SNB-19
A549 = system: A549
NCI-H226 = system: NCI-H226
DMS-114 = system: DMS-114
M14 = system: M14
MOLT-4 = system: MOLT-4
COLO 205 = system: COLO 205
OVCAR-4 = system: OVCAR-4
HCT-15 = system: HCT-15
UACC-257 = system: UACC-257
SF-539 = system: SF-539
ACHN = system: ACHN
OVCAR-8 = system: OVCAR-8
786-0 = system: 786-0
RPMI-8226 = system: RPMI-8226
DMS-273 = system: DMS-273
DLD-1 = system: DLD-1
HCT-116 = system: HCT-116
CCRF-CEM = system: CCRF-CEM
KM-20L2 = system: KM-20L2
LOX IMVI = system: LOX IMVI
SK-MEL-5 = system: SK-MEL-5
NCI-H23 = system: NCI-H23
TK-10 = system: TK-10
HCC 2998 = system: HCC 2998
UACC-62 = system: UACC-62
K562 = system: K562
HOP-62 = system: HOP-62
EKVX = system: EKVX
Malme-3M = system: Malme-3M
NCI-H522 = system: NCI-H522
IGROV-1 = system: IGROV-1
SNB-78 = system: SNB-78
SF-268 = system: SF-268
OVCAR-5 = system: OVCAR-5
OVCAR-3 = system: OVCAR-3
RXF 393 = system: RXF 393
KM12 = system: KM12
SK-MEL-28 = system: SK-MEL-28
SK-OV-3 = system: SK-OV-3
HOP-92 = system: HOP-92

What does the source list for `Cc1ccc(S(=O)(=O)N/N=C/CN2C(=O)c3ccccc3C2=O)cc1`?
GI50 (CAKI-1): > 100 µM (inactive); GI50 (LXFL 529): > 100 µM (inactive); GI50 (SR): > 100 µM (inactive); GI50 (XF498): > 100 µM (inactive); GI50 (HL-60): > 100 µM (inactive); GI50 (UO-31): > 100 µM (inactive); GI50 (NCI-H460): > 100 µM (inactive); GI50 (M19-MEL): > 100 µM (inactive); GI50 (SF-295): > 100 µM (inactive); GI50 (SN12C): > 100 µM (inactive); GI50 (SW-620): > 100 µM (inactive); GI50 (U-251): > 100 µM (inactive); GI50 (SNB-75): > 100 µM (inactive); GI50 (HT-29): > 100 µM (inactive); GI50 (SK-MEL-2): > 100 µM (inactive); GI50 (A498): > 100 µM (inactive); GI50 (SNB-19): > 100 µM (inactive); GI50 (A549): > 100 µM (inactive); GI50 (NCI-H226): 82.2 µM (inactive); GI50 (DMS-114): > 100 µM (inactive); GI50 (M14): > 100 µM (inactive); GI50 (MOLT-4): > 100 µM (inactive); GI50 (COLO 205): > 100 µM (inactive); GI50 (OVCAR-4): > 100 µM (inactive); GI50 (HCT-15): > 100 µM; GI50 (UACC-257): > 100 µM (inactive); GI50 (SF-539): > 100 µM (inactive); GI50 (ACHN): > 100 µM (inactive); GI50 (OVCAR-8): > 100 µM (inactive); GI50 (786-0): > 100 µM (inactive); GI50 (RPMI-8226): > 100 µM (inactive); GI50 (DMS-273): > 100 µM (inactive); GI50 (DLD-1): > 100 µM (inactive); GI50 (HCT-116): > 100 µM (inactive); GI50 (CCRF-CEM): > 100 µM (inactive); GI50 (KM-20L2): > 100 µM (inactive); GI50 (LOX IMVI): > 100 µM (inactive); GI50 (SK-MEL-5): > 100 µM (inactive); GI50 (NCI-H23): > 100 µM (inactive); GI50 (TK-10): > 100 µM (inactive); GI50 (HCC 2998): > 100 µM (inactive); GI50 (UACC-62): 89.5 µM (inactive); GI50 (K562): > 100 µM (inactive); GI50 (HOP-62): > 100 µM (inactive); GI50 (EKVX): > 100 µM (inactive); GI50 (Malme-3M): > 100 µM (inactive); GI50 (NCI-H522): > 100 µM (inactive); GI50 (IGROV-1): > 100 µM (inactive)

With `COC(=O)[C@]12CSCN1C(=O)C(C(C)=O)=NN2C(=O)[C@](OC)(c1ccccc1)C(F)(F)F` as the compound, how does the GI50 (LXFL 529) read?
Its GI50 is > 100 µM (inactive).

What about the GI50 (SR) of the same compound?
The GI50 was > 10 µM (inactive).

What about the GI50 (XF498) of the same compound?
The GI50 was > 100 µM (inactive).

What about the GI50 (HL-60) of the same compound?
The GI50 was > 10 µM (inactive).

What about the GI50 (SNB-78) of the same compound?
The GI50 was > 100 µM (inactive).

And the GI50 (UO-31)?
Its GI50 is > 100 µM (inactive).

What about the GI50 (NCI-H460) of the same compound?
Its GI50 is > 100 µM (inactive).

And the GI50 (M19-MEL)?
The GI50 was > 100 µM (inactive).

And the GI50 (SF-295)?
The GI50 was > 100 µM (inactive).

And the GI50 (SN12C)?
Its GI50 is > 100 µM (inactive).

What about the GI50 (SW-620) of the same compound?
The GI50 was > 100 µM (inactive).

And the GI50 (U-251)?
Its GI50 is > 100 µM (inactive).

And the GI50 (SF-268)?
Its GI50 is > 100 µM (inactive).

And the GI50 (OVCAR-5)?
The GI50 was > 100 µM (inactive).

And the GI50 (SNB-75)?
Its GI50 is 8.17 µM (inactive).

And the GI50 (OVCAR-3)?
The GI50 was > 100 µM (inactive).

What about the GI50 (HT-29) of the same compound?
Its GI50 is > 100 µM (inactive).

And the GI50 (SK-MEL-2)?
The GI50 was > 100 µM (inactive).

What about the GI50 (RXF 393) of the same compound?
The GI50 was 90.6 µM (inactive).

And the GI50 (SNB-19)?
Its GI50 is > 100 µM (inactive).

And the GI50 (A549)?
The GI50 was > 100 µM (inactive).

What about the GI50 (KM12) of the same compound?
Its GI50 is > 100 µM (inactive).

And the GI50 (NCI-H226)?
The GI50 was 88.9 µM (inactive).

And the GI50 (DMS-114)?
The GI50 was > 100 µM (inactive).

What about the GI50 (M14) of the same compound?
The GI50 was > 100 µM (inactive).

And the GI50 (MOLT-4)?
The GI50 was > 100 µM (inactive).

And the GI50 (COLO 205)?
Its GI50 is > 100 µM (inactive).

What about the GI50 (OVCAR-4) of the same compound?
The GI50 was > 100 µM (inactive).

And the GI50 (HCT-15)?
Its GI50 is greater than 100 µM.

And the GI50 (SF-539)?
The GI50 was > 100 µM (inactive).

What about the GI50 (ACHN) of the same compound?
The GI50 was > 100 µM (inactive).

What about the GI50 (OVCAR-8) of the same compound?
Its GI50 is > 100 µM (inactive).

And the GI50 (786-0)?
Its GI50 is > 100 µM (inactive).

What about the GI50 (RPMI-8226) of the same compound?
Its GI50 is > 100 µM (inactive).

What about the GI50 (DMS-273) of the same compound?
The GI50 was > 100 µM (inactive).

And the GI50 (SK-MEL-28)?
Its GI50 is > 100 µM (inactive).

And the GI50 (HCT-116)?
The GI50 was > 100 µM (inactive).

What about the GI50 (CCRF-CEM) of the same compound?
The GI50 was > 10 µM (inactive).

And the GI50 (KM-20L2)?
Its GI50 is > 100 µM (inactive).

And the GI50 (LOX IMVI)?
Its GI50 is > 100 µM (inactive).

And the GI50 (SK-MEL-5)?
Its GI50 is > 100 µM (inactive).

And the GI50 (NCI-H23)?
Its GI50 is > 100 µM (inactive).

And the GI50 (TK-10)?
Its GI50 is > 100 µM (inactive).

And the GI50 (UACC-62)?
The GI50 was > 100 µM (inactive).

And the GI50 (K562)?
Its GI50 is > 100 µM (inactive).

And the GI50 (HOP-62)?
The GI50 was > 100 µM (inactive).

What about the GI50 (EKVX) of the same compound?
The GI50 was > 100 µM (inactive).

And the GI50 (Malme-3M)?
Its GI50 is > 100 µM (inactive).

What about the GI50 (NCI-H522) of the same compound?
Its GI50 is 88.7 µM (inactive).

And the GI50 (IGROV-1)?
Its GI50 is > 100 µM (inactive).

Which results are given for `Cn1c(=O)n(C2(C)CSC2)c2ccccc21`?
GI50 (CAKI-1): > 100 µM (inactive); GI50 (LXFL 529): > 100 µM (inactive); GI50 (SR): > 100 µM (inactive); GI50 (XF498): > 100 µM (inactive); GI50 (HL-60): > 100 µM (inactive); GI50 (UO-31): > 100 µM (inactive); GI50 (NCI-H460): > 100 µM (inactive); GI50 (M19-MEL): > 100 µM (inactive); GI50 (SF-295): > 100 µM (inactive); GI50 (SN12C): > 100 µM (inactive); GI50 (SW-620): > 100 µM (inactive); GI50 (U-251): > 100 µM (inactive); GI50 (SF-268): > 100 µM (inactive); GI50 (OVCAR-5): > 100 µM (inactive); GI50 (SNB-75): > 100 µM (inactive); GI50 (HT-29): > 100 µM (inactive); GI50 (SK-OV-3): > 100 µM (inactive); GI50 (A498): > 100 µM (inactive); GI50 (RXF 393): > 100 µM (inactive); GI50 (SNB-19): > 100 µM (inactive); GI50 (A549): > 100 µM (inactive); GI50 (KM12): > 100 µM (inactive); GI50 (NCI-H226): > 100 µM (inactive); GI50 (DMS-114): > 100 µM (inactive); GI50 (M14): > 100 µM (inactive); GI50 (MOLT-4): > 100 µM (inactive); GI50 (COLO 205): > 100 µM (inactive); GI50 (OVCAR-4): > 100 µM (inactive); GI50 (HCT-15): > 100 µM; GI50 (UACC-257): > 100 µM (inactive); GI50 (SF-539): > 100 µM (inactive); GI50 (ACHN): > 100 µM (inactive); GI50 (OVCAR-8): > 100 µM (inactive); GI50 (786-0): > 100 µM (inactive); GI50 (RPMI-8226): > 100 µM (inactive); GI50 (DMS-273): > 100 µM (inactive); GI50 (SK-MEL-28): > 100 µM (inactive); GI50 (DLD-1): > 100 µM (inactive); GI50 (HCT-116): > 100 µM (inactive); GI50 (HOP-92): > 100 µM (inactive); GI50 (CCRF-CEM): > 100 µM (inactive); GI50 (KM-20L2): > 100 µM (inactive); GI50 (LOX IMVI): > 100 µM (inactive); GI50 (SK-MEL-5): > 100 µM (inactive); GI50 (NCI-H23): > 100 µM (inactive); GI50 (TK-10): > 100 µM (inactive); GI50 (HCC 2998): > 100 µM (inactive); GI50 (UACC-62): > 100 µM (inactive); GI50 (K562): > 100 µM (inactive); GI50 (HOP-62): > 100 µM (inactive); GI50 (EKVX): > 100 µM (inactive); GI50 (NCI-H522): > 100 µM (inactive); GI50 (IGROV-1): > 100 µM (inactive)
